Source: patent US20220305048A1, “USE OF HEPARIN TO PROMOTE TYPE 1 INTERFERON SIGNALING” (Dana-Farber Cancer Institute, Inc., priority 2019, published 2022)

Legend:
[1] = system: 631M/RPPM mouse SCLC cells; experiment: CXCL10 ELISA of conditioned media, STING agonists +/- heparins; type: cell-based; conditions: for interaction between heparin and STING agonist (CXCL10 ELISA): 24 hours, p<0.0001 by 2-WAY ANOVA (FIG. 3C); for interaction between heparin and STING agonist on the amount of CXCL10 in the media: +/- 1 μg/mL heparin, 1 or 10 μg/mL cGAMP, 50 μM ADU, 0.2 mg/ml CMA, 24 hours (FIG. 3A)
Experimental: (§1) 1 mL of conditioned media from each treatment plate was collected after 24 hr culture unless otherwise specified. The collected media was centrifuged at 1400 RPM for 3 minutes to remove any cellular debris before use in the ELISA. Values represent the average of at least two independent biological replicates.

[2] = system: BEN-MEN-1 meningioma cells; experiment: CXCL10 ELISA of conditioned media, ADU S-100 dose and time course +/- heparin; type: cell-based; conditions: 50 μg/mL and 100 μg/mL ADU-S100, heparin 10 μg/mL, 24 hours
Experimental: FIGS. 3A to 3B include plots showing that heparin dose-dependently enhances STING agonist effects across compounds. […] FIG. 3D includes a plot of showing the time course data for BenMen 1 cells with treatment for 3 and 6 days. The data reflects 24 hours treatment prior to collection of conditioned media for CXCL10 ELISA FIG. 3E includes plots showing RPPM mouse SCLC cells treated with 1 μg/mL 2,3-cGAMP and 1 μg/mL unfractionated heparin, low-molecular weight heparin (LMWH), heparin pentasaccharide fondaparinux, 6-desulfated heparin, chondroitin sulfate (CS)+/−the Janus kinase/signal transducers and activators of transcription (JAK/STAT) inhibitor ruxolitinib (ruxo 1 μg/mL) for 24 hours prior to CXCL10 ELISA. H69M human SCLC cells treated with 10 μg/mL 2,3-cGAMP+/−heparin 10 μg/mL or desulfated heparins 2-O desulfated (2DES), N-desulfated (NDES), and 6-O desulfated (6DES) 24 hours prior to CXCL10 ELISA. All panels reflect 24 hours treatment prior to collection of conditioned media for CXCL10 ELISA.
A 24-hour dose response study was also conducted on BEN-MEN-1 meningioma cells (hereafter “BenMen 1 cells”) and RPPM mouse SCLC cells. BenMen 1 cells were treated with various doses of ADU S-100 (0, 10, 20, 30, 50, and 100 μg/mL) either in the presence or absence of heparin (10 μg/mL). […]

[3] = system: BenMen 1 cells; RPPM mouse SCLC and MS428 human mesothelioma cell lines; experiment: STING pathway western blot and CXCL10 ELISA with TBK1 or JAK/STAT inhibitor; type: cell-based; conditions: MRT TBK1 inhibitor 1 μM or 5 μM; ruxolitinib 1 μM
Experimental: FIG. 4A includes immunofluorescent images of fixed hLFB cells after 24 hours of treatment with cyanine-5 (Cy5) labeled 2,3-cGAMP 1 μg/mL+/−heparin 1 μg/mL. The staining represents actin phalloidin, DAPI (4′,6-diamidino-2-phenylindole), and Cy5-labeled cGAMP. FIG. 4B includes a western blot for STING pathway components in BEN-MEN-1 meningioma cells treated for 72 hours with 50 μM ADU+/−heparin 10 μg/mL and MRT TANK-binding kinase-1 (TBK1) inhibitor 5 μM. FIG. 4C includes plots showing CXCL10 ELISA after 24 hours treatment with 2,3-cGAMP (1 μg/mL) or ADU S-100 (50 μM unless otherwise indicated)+/−heparin (1 μg/mL in RPPM or 10 μg/mL in MS428), MRT TBK1 inhibitor 1 μM, or ruxolitinib JAK/STAT inhibitor (“ruxo”; ruxolitinib) 1 μM in RPPM mouse SCLC and MS428 human mesothelioma cell lines. FIG. 4D includes a plot showing the qPCR for Programmed death-ligand 1 (PD-L1) after 24 hours treatment 50 μM ADU+/−heparin 10 μg/mL and MRT TBK1 inhibitor in BEN-MEN-1 meningioma cells. ANOVA p<0.001 for all graphs. *p<0.05 ****p<0.0001 by Bonferroni corrected pairwise comparison.
The serine/threonine protein kinase, TBK1, is a critical regulator in innate immune signaling pathways that lead to the induction of type I interferon (IFN) and interferon-stimulated genes (ISGs). Dysregulation of TBK1 activity is often associated with autoimmune diseases and cancer. […]

[4] = system: H196 SCLC and MS428 meningioma cells; experiment: Luminex cytokine array; type: cell-based, human; conditions: 5 μM MRT TBK1 inhibitor
Experimental: FIGS. 19A to 19B includes diagrams showing that heparin alters the release of multiple cytokines after STING agonist treatment. […] L2FC=LOG2 fold change.
The influence of heparin (with and without a STING agonist) on IL-6 and IL-8 levels was examined. […] This effect was reversed by MRT TBK1 inhibitor.
Multiplex assays were performed utilizing the Human Cytokine/Chemokine Maganetic Bead Panel (Cat. #HCYTMAG-60K-PX30) on a Luminex MAGPIX system (Merck Millipore). Conditioned media concentrations (pg/ml) for each cytokine were derived from parameter curve fitting models. Fold changes relative to the corresponding control were calculated and plotted as log 2FC.

[5] = system: Human lung fibroblasts (hLFB); experiment: CXCL10 qPCR, 2,3-cGAMP +/- heparin; type: cell-based; conditions: 2,3-cGAMP 1 μg/mL, 24 hours
Experimental: FIG. 2 includes plots showing that heparin enhances STING agonist activity. FIG. 2A includes plots showing human lung fibroblasts (hLFB) and H69-mesenchymal (H69M) small cell lung cancer (SCLC) cells treated with 2,3-cGAMP 1 μg/mL+/−heparin 1 μg/mL for 24 hours prior to CXCL10 qPCR and collection of conditioned media for C—X—C motif chemokine 10 (CXCL10) ELISA (enzyme-linked immunosorbent assay). […] THP1=differentiated macrophages. hLFB=human lung fibroblasts. MEF=mouse embryonic fibroblasts. HUE=human umbilical endothelial cells. ANOVA p<0.001 for all figures. *p<0.05 ****p<0.0001 by Bonferroni corrected pairwise comparison.
Also, Human lung fibroblasts (hLFB) were treated with 2,3-cGAMP 1 μg/mL (hereafter referred to as “cGAMP)+/−heparin 1 μg/mL for 24 hours prior to CXCL10 qPCR and collection of conditioned media for CXCL10 ELISA (FIG. 2A).
RNA extraction was performed using the RNeasy Mini Kit (Qiagen, Cat. #74106). RNA samples (1000 ng) were reverse-transcribed into cDNA using Superscript® First-Strand Synthesis SuperMix (Thermo Fisher Scientific, Cat. #1683483). Quantitative real-time PCR was then performed using Power SYBR Green PCR Master Mix (Thermo Fisher Scientific, Cat. #4367659). The sequences of the primers used for qRT-PCR were obtained from previously published literature. Error bars represent technical replicates of each experiment.

[6] = system: B16F10 mouse melanoma cells; Lewis Lung Carcinoma (LLC) mouse non-small-cell lung cancer cells; experiment: CXCL10 ELISA of conditioned media, interferons +/- heparin; type: cell-based; conditions: interferon 5 ng/mL +/- heparin 1 μg/mL, 24 hours
Experimental: as §1

**Q.** What does the source list for `Nc1ncnc2c1ncn2[C@@H]1O[C@@H]2CO[P@](=O)(S)O[C@@H]3C(O)[C@@H](CO[P@@](=O)(S)O[C@H]2[C@H]1O)O[C@H]3n1cnc2c(N)ncnc21` (stereo partly drawn) [ADU-S100]?
**A.** interaction between heparin and STING agonist (CXCL10 ELISA) [1]: significant interaction; interaction between heparin and STING agonist on the amount of CXCL10 in the media [1]: significant interaction; STING activity (CXCL10 concentration) in the presence vs absence of heparin [2]: significantly higher STING activity

**Q.** What does the source list for `O=C(NCCCNc1nc(Nc2cccc(CN3CCOCC3)c2)ncc1C1CC1)C1CCC1` [MRT TBK1 inhibitor, MRT67307]?
**A.** STING activity after addition of inhibitor to heparin and ADU [3]: reduced the STING activity; effect of heparin plus ADU on cytokines after TBK1 inhibitor [4]: reversed

**Q.** For cyclic GMP-AMP [cGAMP], which “STING activity (CXCL10 expression, qPCR), cGAMP in the absence of heparin” value [5] is on record?
**A.** negligible STING activity

**Q.** And the “interaction between heparin and STING agonist (CXCL10 ELISA)” value [1]?
**A.** significant interaction

**Q.** What about the “interaction between heparin and STING agonist on the amount of CXCL10 in the media” value [1] of the same compound?
**A.** significant interaction

**Q.** For IFNg: interferon gamma (R&D systems), which “amount of CXCL10 in the media with heparin compared to interferon alone” value [6] is on record?
**A.** not seen
